Source: US10882830B2, “Crystal form of ozanimod hydrochloride and processes for preparation therefor” (Receptos LLC, priority 2016, dated 2021)
Counter-ions that a name gives are not always drawn.

Legend:
Format in all cases: physicochemical
[1] = Hygroscopicity assessment by dynamic vapor sorption (DVS); settings: 25° C.; for Weight Gain under 80% RH: DVS, about 10 mg of sample
Experimental: Dynamic Vapor Sorption (DVS) is measured via an SMS (Surface Measurement Systems Ltd.) intrinsic DVS. Typical Parameters for DVS test are as follows:
Gas and flow rate: N2, 200 mL/min
RH range: 0% RH to 95% RH
Dynamic vapor sorption (DVS) was applied to test hygroscopicity of Form CS3 with about 10 mg of sample. The DVS plot is substantially as depicted in FIG. 5.
Description and definition of hygroscopicity (Chinese Pharmacopoeia 2015 edition appendix Drug hygroscopic test guidelines, test at 25° C.+/−1° C., 80% RH). • deliquescent: Sufficient water is absorbed to form a liquid; • very hygroscopic: Increase in mass is equal to or greater than 15%; • hygroscopic: Increase in mass is less than 15% and equal to or greater than 2%; • slightly hygroscopic: Increase in mass is less than 2% and equal to or greater than 0.2%. • no or almost no hygroscopic: Increase in mass is less than 0.2%.

[2] = Particle size distribution test (Microtrac S3500 laser particle size analyzer, wet process)
Experimental: The particle size distribution test in the present disclosure is acquired by the S3500 laser particle size analyzer of Microtrac. Microtrac S3500 is equipped with the SDC (Sample Delivery Controller). The test is carried out by wet process, and the dispersion medium is Isopar G The parameters are as follow:
Sample of Form CS3 was taken for particle size distribution test.

[3] = Stability assessment in constant temperature and humidity chambers, crystalline form tested by XRPD; settings: 2 weeks
Experimental: Two samples of Form CS3 of ozanimod hydrochloride were placed in constant temperature and humidity chambers at 25° C./60% RH and 40° C./75% RH for 2 weeks. XRPD was used to test the crystalline form. The XRPD overlay pattern is substantially as depicted in FIG. 8 (from top to bottom: XRPD pattern of Form CS3 before and after being stored under 25° C./60% RH and 40° C./75% RH for 2 weeks). […] It can be seen that Form CS3 of ozanimod hydrochloride has good stability, which is benefit for drug storage.

[4] = Solubility assessment: saturated solutions in SGF, FeSSIF and water, concentration by HPLC; settings: thermodynamic from solid
Experimental: Form CS3 of ozanimod hydrochloride was suspended into SGF (Simulated gastric fluids, pH=1.8), FeSSIF (Fed state simulated intestinal fluids, pH=5.0) and water to obtain saturated solutions. After being equilibrated for 1 h, 4 h and 24 h, concentrations of the saturated solutions were measured by HPLC.

## CC(C)Oc1ccc(-c2nc(-c3cccc4c3CC[C@@H]4NCCO)no2)cc1C#N [Form CS3 of ozanimod hydrochloride, ozanimod hydrochloride]
[1]; Chinese Pharmacopoeia 2015 definition, 80% RH
  Hygroscopicity class according to the definition of hygroscopicity: hygroscopic
[1]; hydrochloride
  Weight Gain under 80% RH: 2.50%
[1]; listed as Form CS3, hydrochloride
  Weight Gain under 80% RH: 2.50%
[2]; dispersion medium Isopar G, average of 3 runs
  MV (average particle size calculated by volume): 131.8 μm
[2]; unit not given
  average particle size: 131.8
[2]; volume distribution, Isopar G
  D10: 19.94 μm
  D50: 100.5 μm
  D90: 287.0 μm
[3]; 25° C./60% RH
  Crystalline form change by XRPD after storage: No form change
[3]; 40° C./75% RH
  Crystalline form change by XRPD after storage: No form change
[4]; fed state simulated intestinal fluid (FeSSIF), FeSSIF pH=5.0, 1 h
  solubility at 1 h: 2100 µg/mL
[4]; fed state simulated intestinal fluid (FeSSIF), FeSSIF pH=5.0, 4 h
  solubility at 4 h: 2100 µg/mL
[4]; fed state simulated intestinal fluid (FeSSIF), FeSSIF pH=5.0, 24 h
  solubility at 24 h: 1800 µg/mL
[4]; simulated gastric fluid (SGF), simulated gastric fluid, SGF pH=1.8, 1 h
  solubility at 1 h: 200 µg/mL
[4]; simulated gastric fluid (SGF), simulated gastric fluid, SGF pH=1.8, 4 h
  solubility at 4 h: 200 µg/mL
[4]; simulated gastric fluid (SGF), simulated gastric fluid, SGF pH=1.8, 24 h
  solubility at 24 h: 200 µg/mL
[4]; water, H2O, 1 h
  solubility at 1 h: 1100 µg/mL
[4]; water, H2O, 4 h
  solubility at 4 h: 1400 µg/mL
[4]; water, H2O, 24 h
  solubility at 24 h: 1300 µg/mL
